Measured values published in US12077503B2, “Substituted cyclic amides and their use as herbicides” (FMC CORPORATION, priority 2015, dated 2024).

Legend:
Type in all cases: in vivo
[1] = tested on: sedge, umbrella (small-flower umbrella sedge, Cyperus difformis); test: Test B flooded paddy test; settings: Cyperus difformis, 250 g ai/ha, Flood; 0 to 100 scale where 0 is no effect and 100 is complete control; read-out: Sedge, Umbrella plant response rating
Method in brief: (§1)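 Response scored visually against untreated controls, 0 = no effect and 100 = complete control, 13–15 d after treatment in the greenhouse. Compounds added to paddy water held 3 cm above soil surface. Treatment given at 2-leaf stage.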

rice (Oryra sativa) = test: Test B flooded paddy test; settings: Oryza sativa, 250 g ai/ha, Flood; 0 to 100 scale where 0 is no effect and 100 is complete control; read-out: Rice plant response rating
Method in brief: as §1

[2] = tested on: barnyardgrass (Echinochloa crus-galli); test: Test B flooded paddy test; settings: Echinochloa crus-galli, 250 g ai/ha, Flood; 0 to 100 scale where 0 is no effect and 100 is complete control; read-out: Barnyardgrass plant response rating
Method in brief: as §1

[3] = tested on: ducksalad (Heteranthera limosa); test: Test B flooded paddy test; settings: Heteranthera limosa, 250 g ai/ha, Flood; 0 to 100 scale where 0 is no effect and 100 is complete control; read-out: Ducksalad plant response rating
Method in brief: as §1

[4] = tested on: pigweed (Amaranthus retroflexus); test: Test A postemergence; settings: Amaranthus retroflexus, post-emergence, 240 h, Postemergence, read-out: Pigweed plant response rating (0 to 100 scale); for pest or weed control at 125 g/ha: 125 g ai/ha, visual rating about 10 d after treatment; for pest or weed control at 31 g/ha: 31 g ai/ha, 0 is no effect, 100 is complete control
Method in brief: (§2)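 Each rating is a visual injury score from 0 to 100 given about 10 d after treatment, judged against untreated controls kept alongside in the greenhouse. In loam soil–sand blend, seeds got a preemergence directed soil spray, while postemergence plants were 2 to 10 cm tall at spraying.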

Kochia (Kochia scoparia) [5] = test: Test A postemergence; settings: Bassia scoparia, post-emergence, 240 h, Postemergence, read-out: Kochia plant response rating (0 to 100 scale); for pest or weed control at 125 g/ha: 125 g ai/ha, visual rating about 10 d after treatment; for pest or weed control at 31 g/ha: 31 g ai/ha, 0 is no effect, 100 is complete control
Method in brief: as §2

[6] = tested on: ryegrass, Italian (Italian ryegrass, Lolium multiflorum); test: Test A postemergence; settings: Lolium multiflorum, post-emergence, 240 h, Postemergence, read-out: Ryegrass, Italian plant response rating (0 to 100 scale); for pest or weed control at 125 g/ha: 125 g ai/ha, visual rating about 10 d after treatment; for pest or weed control at 31 g/ha: 31 g ai/ha, 0 is no effect, 100 is complete control
Method in brief: as §2

[7] = tested on: blackgrass (Alopecurus myosuroides); test: Test A postemergence; settings: Alopecurus myosuroides, post-emergence, 240 h, Postemergence, read-out: Blackgrass plant response rating (0 to 100 scale); for pest or weed control at 125 g/ha: 125 g ai/ha, visual rating about 10 d after treatment; for pest or weed control at 31 g/ha: 31 g ai/ha, 0 is no effect, 100 is complete control
Method in brief: as §2

[8] = tested on: giant foxtail (Setaria faberii); test: Test A postemergence; settings: Setaria faberi, post-emergence, 240 h, Postemergence, read-out: Foxtail, Giant plant response rating (0 to 100 scale); for pest or weed control at 125 g/ha: 125 g ai/ha, visual rating about 10 d after treatment; for pest or weed control at 31 g/ha: 31 g ai/ha, 0 is no effect, 100 is complete control
Method in brief: as §2

corn (Zea mays) = test: Test A postemergence; settings: Zea mays, post-emergence, 240 h, Postemergence, read-out: Corn plant response rating (0 to 100 scale); for plant injury at 125 g/ha: 125 g ai/ha, visual rating about 10 d after treatment; for plant injury at 31 g/ha: 31 g ai/ha, 0 is no effect, 100 is complete control
Method in brief: as §2

[9] = tested on: Galium (catchweed bedstraw, Galium aparine); test: Test A postemergence; settings: Galium, post-emergence, 240 h, Postemergence, read-out: Galium plant response rating (0 to 100 scale); for pest or weed control at 125 g/ha: 125 g ai/ha, visual rating about 10 d after treatment; for pest or weed control at 31 g/ha: 31 g ai/ha, 0 is no effect, 100 is complete control
Method in brief: as §2

[10] = tested on: wheat (Triticum aestivum); test: Test A postemergence; settings: Triticum aestivum, post-emergence, 240 h, Postemergence, read-out: Wheat plant response rating (0 to 100 scale); for plant injury at 125 g/ha: 125 g ai/ha, visual rating about 10 d after treatment; for plant injury at 31 g/ha: 31 g ai/ha, 0 is no effect, 100 is complete control
Method in brief: as §2

[11] = tested on: ragweed (common ragweed, Ambrosia elatior); test: Test A postemergence; settings: Ambrosia artemisiifolia, post-emergence, 240 h, Postemergence, read-out: Ragweed plant response rating (0 to 100 scale); for pest or weed control at 125 g/ha: 125 g ai/ha, visual rating about 10 d after treatment; for pest or weed control at 31 g/ha: 31 g ai/ha, 0 is no effect, 100 is complete control
Method in brief: as §2

[12] = tested on: barnyardgrass (Echinochloa crus-galli); test: Test A postemergence; settings: Echinochloa crus-galli, post-emergence, 240 h, Postemergence; for pest or weed control at 125 g/ha: 125 g ai/ha, visual rating about 10 d after treatment, read-out: Barnyardgrass plant response rating (0 to 100 scale, 0 no effect, 100 complete control); for pest or weed control at 31 g/ha: 31 g ai/ha, 0 is no effect, 100 is complete control, read-out: Barnyardgrass plant response rating (0 to 100 scale)
Method in brief: as §2

[13] = tested on: pigweed (Amaranthus retroflexus); test: Test A preemergence; settings: Amaranthus retroflexus, pre-emergence, 240 h, 0 to 100 scale where 0 is no effect and 100 is complete control, read-out: Pigweed plant response rating; for pest or weed control at 31 g/ha: 31 g ai/ha, Preemergence; for pest or weed control at 125 g/ha: 125 g ai/ha, preemergence, visual injury rating, approximately 10 d
Kochia (Kochia scoparia) [14] = test: Test A preemergence; settings: Bassia scoparia, pre-emergence, 240 h, 0 to 100 scale where 0 is no effect and 100 is complete control, read-out: Kochia plant response rating; for pest or weed control at 31 g/ha: 31 g ai/ha, Preemergence; for pest or weed control at 125 g/ha: 125 g ai/ha, preemergence, visual injury rating, approximately 10 d
Method in brief: as §2

[15] = tested on: ryegrass, Italian (Italian ryegrass, Lolium multiflorum); test: Test A preemergence; settings: Lolium multiflorum, pre-emergence, 240 h, 0 to 100 scale where 0 is no effect and 100 is complete control, read-out: Ryegrass, Italian plant response rating; for pest or weed control at 31 g/ha: 31 g ai/ha, Preemergence; for pest or weed control at 125 g/ha: 125 g ai/ha, preemergence, visual injury rating, approximately 10 d
Method in brief: as §2

[16] = tested on: giant foxtail (Setaria faberii); test: Test A preemergence; settings: Setaria faberi, pre-emergence, 240 h, 0 to 100 scale where 0 is no effect and 100 is complete control, read-out: Foxtail, Giant plant response rating; for pest or weed control at 31 g/ha: 31 g ai/ha, Preemergence; for pest or weed control at 125 g/ha: 125 g ai/ha, preemergence, visual injury rating, approximately 10 d
Method in brief: as §2

[17] = tested on: ragweed (common ragweed, Ambrosia elatior); test: Test A preemergence; settings: Ambrosia artemisiifolia, pre-emergence, 240 h, 0 to 100 scale where 0 is no effect and 100 is complete control, read-out: Ragweed plant response rating; for pest or weed control at 31 g/ha: 31 g ai/ha, Preemergence; for pest or weed control at 125 g/ha: 125 g ai/ha, preemergence, visual injury rating, approximately 10 d
Method in brief: as §2

[18] = tested on: barnyardgrass (Echinochloa crus-galli); test: Test A preemergence; settings: Echinochloa crus-galli, pre-emergence, 240 h, 0 to 100 scale where 0 is no effect and 100 is complete control, read-out: Barnyardgrass plant response rating; for pest or weed control at 31 g/ha: 31 g ai/ha, Preemergence; for pest or weed control at 125 g/ha: 125 g ai/ha, preemergence, visual injury rating, approximately 10 d
Method in brief: as §2

SMILES	pest or weed control at 250 g/ha [1] [%]	pest or weed control at 250 g/ha (rice (Oryra sativa)) [%]	pest or weed control at 250 g/ha [2] [%]	pest or weed control at 250 g/ha [3] [%]	pest or weed control at 125 g/ha [4] [%]	pest or weed control at 31 g/ha [4] [%]	pest or weed control at 125 g/ha (Kochia (Kochia scoparia) [5]) [%]	pest or weed control at 31 g/ha (Kochia (Kochia scoparia) [5]) [%]	pest or weed control at 125 g/ha [6] [%]	pest or weed control at 31 g/ha [6] [%]	pest or weed control at 125 g/ha [7] [%]	pest or weed control at 31 g/ha [7] [%]	pest or weed control at 125 g/ha [8] [%]	pest or weed control at 31 g/ha [8] [%]	plant injury at 125 g/ha (corn (Zea mays)) [%]	plant injury at 31 g/ha (corn (Zea mays)) [%]	pest or weed control at 125 g/ha [9] [%]	pest or weed control at 31 g/ha [9] [%]	plant injury at 125 g/ha [10] [%]	plant injury at 31 g/ha [10] [%]	also measured
CN1C[C@H](c2cccc(C#N)c2)[C@@H](C(=O)Nc2cccc(F)c2F)C1=O [Compound 1286]	0	0	70	95	20	0	30	0	0	0	40	0	90	70	80	20	40	20	0	0	pest or weed control at 125 g/ha [11]: 0%; pest or weed control at 31 g/ha [11]: 0%; pest or weed control at 125 g/ha [12]: 90%; pest or weed control at 31 g/ha [12]: 90%; pest or weed control at 31 g/ha [13]: 0%; pest or weed control at 125 g/ha [13]: 20%; pest or weed control at 31 g/ha (Kochia (Kochia scoparia) [14]): 0%; pest or weed control at 125 g/ha (Kochia (Kochia scoparia) [14]): 60%; pest or weed control at 31 g/ha [15]: 20%; pest or weed control at 125 g/ha [15]: 60%; pest or weed control at 31 g/ha [16]: 100%; pest or weed control at 125 g/ha [16]: 100%; pest or weed control at 31 g/ha [17]: 0%; pest or weed control at 125 g/ha [17]: 50%; pest or weed control at 31 g/ha [18]: 100%; pest or weed control at 125 g/ha [18]: 100%
Cc1ccc([C@H]2CN(C)C(=O)[C@@H]2C(=O)Nc2ccccc2)cc1 [Compound 1291]	0	30	90	100	0	0	0	0	0	0	0	0	80	70	30	0	20	0	30	0	pest or weed control at 125 g/ha [11]: 0%; pest or weed control at 31 g/ha [11]: 0%; pest or weed control at 125 g/ha [12]: 90%; pest or weed control at 31 g/ha [12]: 70%; pest or weed control at 31 g/ha [13]: 0%; pest or weed control at 125 g/ha [13]: 100%; pest or weed control at 31 g/ha (Kochia (Kochia scoparia) [14]): 0%; pest or weed control at 125 g/ha (Kochia (Kochia scoparia) [14]): 40%; pest or weed control at 31 g/ha [15]: 0%; pest or weed control at 125 g/ha [15]: 20%; pest or weed control at 31 g/ha [16]: 100%; pest or weed control at 125 g/ha [16]: 100%; pest or weed control at 31 g/ha [17]: 0%; pest or weed control at 125 g/ha [17]: 0%; pest or weed control at 31 g/ha [18]: 100%; pest or weed control at 125 g/ha [18]: 100%
